Assay [1] addresses T1, CYP 3A4 (Homo sapiens, UniProt P08684).
T1 construct: followed by 222.2 ml of 20 mg/mL HLM (BD Gentest); tissue BD Gentest; host or cells: human liver microsomes
Nature of the assay: Human Liver Microsome CYP 3A4 Inhibition. In kind it is in vitro ADME. Particulars: human liver microsomes, midazolam substrate; read-out: inhibited CYP3A4 microsomes, IC50. As for the experimental part: Determining the IC-50 for Human Liver Microsome CYP 3A4 Inhibition
Postassium Phosphate Buffer pH 7.4 (39.667 mL) is chilled in an ice bath and added to a 50 ml plastic tube. A 2 mM midazolam solution is prepared. 111.1 ul of 2 mM midazolam is added to the buffer followed by 222.2 ml of 20 mg/mL HLM (BD Gentest). The incubation mixture was gently inverted and equilibrated at 37° C. for 5 min. A stock inhibitor solution is prepared, such as in DMSO. Incubation mixture (801 ul) is added into 96-well, 1.2 mL plastic tubes. Inhibitor is added at various concentrations (e.g. 30 uM to 120 nM). The tubes are sealed and mix by inverting 5 times gently. The incubation mixture containing inhibitor (270 uL) is added by aliquot into wells of a 1 mL, 96-well block (duplicate). The block is placed into a 37° C. water bath and equilibrated for 3 min. 10 mM NADPH (30 ml) is added to all samples. After 5 minutes, the reactions are stopped by adding 300 ml of Quench Solution [0.1% TFA in CH3CN]. 1′-OH-Midazolam-d313C (2 mg/mL 30 uL) is added, the block is gently vortexed then centrifuged at 3000 rpm for 10 minutes at 4° C. 50 μL of supernatant from all samples is added by aliquot into a shorter, 96-well block. The aliquoted supernatants are pooled with other assay(s) and HPLC Grade Water (50 ul) is added to all samples. After covering and shaking by vortex gently for 2 minutes, the solutions were analyzed by LC-MS (API 3000,5% MeOH w/0.1% AcOH to 95% MeOH w/0.1% AcOH). 37 nM ketoconazole is used as a control.
For orientation: Liver microsomes are a subcellular fraction often used to study metabolism.

Assay [2] relates to VEGF-stimulated HUVEC proliferation (Human Umbilical Vein Endothelial cells). As to the kind of experiment: HUVEC Proliferation Assay. In kind it is cell-based. Particulars: VEGF 50 ng/mL, 72 h, CyQuant fluorescent dye, read-out: inhibited VEGF-stimulated HUVEC proliferation at a level. The essentials: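 HUVEC (passage 2–3) were seeded in DMEM+10% FBS for 22 h, then pre-incubated 2–3 h with 5-point, 5-fold compound dilutions (0.25% DMSO). They were then stimulated with VEGF (50 ng/mL final) for 72 h at 37 °C. Proliferation was read by CyQuant fluorescence (485/530 nm) after freeze-thaw, and IC50 came from a 4-parameter fit.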

The target of assay [3] is T2, CYP 2D6 (Homo sapiens, UniProt P10635).
T2 construct: followed by 555.6 ml of 20 mg/mL HLM (BD Gentest); tissue BD Gentest; host or cells: human liver microsomes
Nature of the assay: Human Liver Microsome CYP 2D6 Inhibition. Particulars: human liver microsomes, bufuralol substrate; read-out: inhibited CYP2D6 microsomes, IC50. In kind it is in vitro ADME. The procedure, abridged: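 Pooled human liver microsomes with bufuralol in potassium phosphate pH 7.4, preincubated with inhibitor at 37 °C; reaction started with NADPH, quenched after 5 min with 0.1% TFA in acetonitrile. 1′-OH-bufuralol quantified by LC-MS with deuterated internal standard; IC50 determined, quinidine 500 nM as control.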

T2 sequence (P10635 whole entry): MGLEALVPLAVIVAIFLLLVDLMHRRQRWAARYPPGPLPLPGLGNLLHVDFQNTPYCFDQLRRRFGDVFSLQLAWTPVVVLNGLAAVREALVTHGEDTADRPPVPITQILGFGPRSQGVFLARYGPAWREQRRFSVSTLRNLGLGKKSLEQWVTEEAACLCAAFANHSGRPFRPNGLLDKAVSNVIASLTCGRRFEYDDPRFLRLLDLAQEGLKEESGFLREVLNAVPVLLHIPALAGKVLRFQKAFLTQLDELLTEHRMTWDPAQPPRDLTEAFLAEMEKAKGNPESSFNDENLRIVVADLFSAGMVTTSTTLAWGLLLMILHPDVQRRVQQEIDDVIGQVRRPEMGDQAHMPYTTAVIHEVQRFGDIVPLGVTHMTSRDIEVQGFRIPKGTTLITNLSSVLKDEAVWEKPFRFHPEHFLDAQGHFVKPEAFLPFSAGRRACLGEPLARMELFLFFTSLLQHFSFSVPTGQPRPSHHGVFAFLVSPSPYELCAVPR
T1 sequence (P08684 whole entry): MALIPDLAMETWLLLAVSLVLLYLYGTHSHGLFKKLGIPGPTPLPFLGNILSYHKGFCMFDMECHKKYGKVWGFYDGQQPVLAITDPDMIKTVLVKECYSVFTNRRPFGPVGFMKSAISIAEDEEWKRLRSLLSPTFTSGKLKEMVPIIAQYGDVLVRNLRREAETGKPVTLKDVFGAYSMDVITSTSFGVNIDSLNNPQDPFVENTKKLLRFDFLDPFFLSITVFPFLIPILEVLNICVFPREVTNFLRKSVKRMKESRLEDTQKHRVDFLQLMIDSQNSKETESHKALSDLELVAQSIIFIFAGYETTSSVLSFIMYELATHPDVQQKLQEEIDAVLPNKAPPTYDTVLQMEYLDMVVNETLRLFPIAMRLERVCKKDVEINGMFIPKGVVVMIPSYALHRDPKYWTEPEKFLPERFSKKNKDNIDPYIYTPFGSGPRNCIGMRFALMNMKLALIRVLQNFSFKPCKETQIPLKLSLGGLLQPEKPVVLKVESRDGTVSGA

For the molecule `CC1(C)CNc2cc(NC(=O)c3cccnc3NCc3ccnc4[nH]ccc34)ccc21` [Example 16, N-(3,3-Dimethyl-2,3-dihydro-1H-indol-6-yl)-2-[(1H-pyrrolo[2,3-b]pyridin-4-ylmethyl)amino]nicotinamide], the IC50 in assay [1] was > 20 µM; in assay [2], < 0.5 µM; in assay [3] it was > 20 µM.
On to `CC(C)(C)c1ccc(NC(=O)c2cccnc2NCc2ccnc3c2CCN3)cc1` [Example 28, N-(4-tert-Butylphenyl)-2-[(2,3-dihydro-1H-pyrrolo[2,3-b]pyridin-4-ylmethyl)amino]nicotinamide], for which the IC50 is > 20 µM in assay [1], < 0.5 µM in assay [2] and > 20 µM in assay [3].
As to `CC1(C)CNc2cc(NC(=O)c3cccnc3NCc3ccnc4c3CCN4)ccc21` [Example 32, 2-[(2,3-Dihydro-1H-pyrrolo[2,3-b]pyridin-4-ylmethyl)amino]-N-(3,3-dimethyl-2,3-dihydro-1H-indol-6-yl)nicotinamide], the IC50 in assay [1] was > 20 µM; in assay [2] it was < 0.5 µM; in assay [3] it was > 20 µM.
In the case of `CC1(C)CN(C(=O)[C@@H]2CCCO2)c2cc(NC(=O)c3cccnc3NCc3ccnc4[nH]ccc34)ccc21` [Example 34, N-{3,3-dimethyl-1-[(2S)-tetrahydrofuran-2-ylcarbonyl]-2,3-dihydro-1H-indol-6-yl}-2-[(1H-pyrrolo[2,3-b]pyridin-4-ylmethyl)amino]nicotinamide], the IC50 in assay [1] was > 20 µM; in assay [2], < 0.5 µM; in assay [3] it was > 20 µM.
Regarding `O=C(Nc1cc(OC[C@H]2CCCO2)cc(C(F)(F)F)c1)c1cccnc1NCc1ccnc2[nH]ccc12` [Example 36, 2-[(1H-pyrrolo[2,3-b]pyridin-4-ylmethyl)amino]-N-[3-[(2R)-tetrahydrofuran-2-ylmethoxy]-5-(trifluoromethyl)phenyl]nicotinamide], the values for the IC50 in assay [1], in assay [2] and in assay [3] were > 20 µM, < 0.5 µM and > 20 µM, respectively.
As to `CC1(C)CC(=O)Nc2cc(NC(=O)c3cccnc3NCc3c[nH]c4ncccc34)ccc21` [Example 41, N-(4,4-Dimethyl-2-oxo-1,2,3,4-tetrahydro-7-quinolinyl)-2-((1H-pyrrolo[2,3-b]pyridin-3-ylmethyl)amino)-3-pyridinecarboxamide], the figures for the IC50 in assay [1], in assay [2] and in assay [3] were > 20 µM, < 0.5 µM and > 20 µM, respectively.
As for `Cc1nc2cc(NC(=O)c3cccnc3NCc3ccnc4[nH]ccc34)ccc2s1` [Example 48, N-(2-methyl-1,3-benzothiazol-5-yl)-2-[(1H-pyrrolo[2,3-b]pyridin-4-ylmethyl)amino]nicotinamide], the IC50 is > 20 µM in assay [1], < 0.5 µM in assay [2] and > 20 µM in assay [3].
Regarding `CC(C)(C)c1cc(NC(=O)c2cccnc2NCc2ccnc3[nH]ccc23)no1` [Example 49, N-(5-tert-butylisoxazol-3-yl)-2-[(1H-pyrrolo[2,3-b]pyridin-4-ylmethyl)amino]nicotinamide], the IC50 in assay [1] is > 20 µM; in assay [2] it was < 0.5 µM; in assay [3], > 20 µM.
Turning to `O=C(Nc1ccc2ccccc2c1)c1cccnc1NCc1ccnc2[nH]ccc12` [Example 50, N-Naphthalen-2-yl-2-[(1H-pyrrolo[2,3-b]pyridin-4-ylmethyl)-amino]-nicotinamide], the values for the IC50 in assay [1], in assay [2] and in assay [3] were > 20 µM, < 0.5 µM and > 20 µM, respectively.
Turning to `CC1(C)CNC(=O)c2cc(NC(=O)c3cccnc3NCc3ccnc4[nH]ccc34)ccc21` [Example 56, N-(4,4-Dimethyl-1-oxo-1,2,3,4-tetrahydro-isoquinolin-7-yl)-2-[(1H-pyrrolo[2,3-b]pyridin-4-ylmethyl)-amino]-nicotinamide], the IC50 is > 20 µM in assay [1], < 0.5 µM in assay [2] and > 20 µM in assay [3].
`CN(C)CC(=O)Nc1cc(NC(=O)c2cccnc2NCc2ccnc3[nH]ccc23)ccc1C(C)(C)C` [Example 59, N-[4-tert-Butyl-3-(2-dimethylamino-acetylamino)-phenyl]-2-[(1H-pyrrolo[2,3-b]pyridin-4-ylmethyl)-amino]-nicotinamide]: the IC50 in assay [1] is > 20 µM; in assay [2] it was < 0.5 µM; in assay [3], > 20 µM.
Take `CC1(C)CCCNc2cc(NC(=O)c3cccnc3NCc3ccnc4[nH]ccc34)ccc21` [Example 64, N-(5,5-Dimethyl-2,3,4,5-tetrahydro-1H-benzo[b]azepin-8-yl)-2-[(1H-pyrrolo[2,3-b]pyridin-4-ylmethyl)-amino]-nicotinamide]: the IC50 in assay [1] was > 20 µM; in assay [2], < 0.5 µM; in assay [3], > 20 µM.
As for `O=C(Nc1ccc(C(F)(F)F)cc1)c1cccnc1NCc1ccnc2[nH]ccc12` [Example 66, 2-[(1H-Pyrrolo[2,3-b]pyridin-4-ylmethyl)-amino]-N-(4-trifluoromethyl-phenyl)-nicotinamide], the IC50 is > 20 µM in assay [1], < 0.5 µM in assay [2] and > 20 µM in assay [3].
With `O=C(Nc1ccc(C(F)(F)C(F)(F)F)cc1)c1cccnc1NCc1ccnc2[nH]ccc12` [Example 67, N-(4-pentafluoroethyl-phenyl)-2-[(1H-pyrrolo[2,3-b]pyridin-4-ylmethyl)-amino]-nicotinamide], the IC50 in assay [1] was > 20 µM; in assay [2] it was < 0.5 µM; in assay [3], > 20 µM.
In the case of `O=C(Nc1ccc(C(F)(F)C(F)(F)F)cc1)c1cc(F)cnc1NCc1ccnc2[nH]ccc12` [Example 76, 5-fluoro-N-(4-(pentafluoroethyl)phenyl)-2-((1H-pyrrolo[2,3-b]pyridin-4-ylmethyl)amino)-3-pyridinecarboxamide], the results for the IC50 in assay [1], in assay [2] and in assay [3] were > 20 µM, < 0.5 µM and > 20 µM, respectively.
As for `Cc1cc(NC(=O)c2cc(F)cnc2NCc2ccnc3[nH]ccc23)ccc1C(C)C` [Example 83, 5-fluoro-N-(3-methyl-4-(1-methylethyl)phenyl)-2-((1H-pyrrolo[2,3-b]pyridin-4-ylmethyl)amino)-3-pyridinecarboxamide], the IC50 is > 20 µM in assay [1], < 0.5 µM in assay [2] and > 20 µM in assay [3].
With `O=C(Nc1ccc(OC(F)(F)F)cc1)c1cc(F)cnc1NCc1ccnc2[nH]ccc12` [Example 96, 5-fluoro-2-((1H-pyrrolo[2,3-b]pyridin-4-ylmethyl)amino)-N-(4-((trifluoromethyl)oxy)phenyl)-3-pyridinecarboxamide], the IC50 in assay [1] is > 20 µM; in assay [2] it was < 0.5 µM; in assay [3], > 20 µM.
As to `Cc1ccc(NC(=O)c2cc(F)cnc2NCc2ccnc3[nH]ccc23)cc1C(F)(F)F` [Example 112, 5-fluoro-N-(4-methyl-3-(trifluoromethyl)phenyl)-2-((1H-pyrrolo[2,3-b]pyridin-4-ylmethyl)amino)-3-pyridinecarboxamide], the IC50 is > 20 µM in assay [1], < 0.5 µM in assay [2] and > 20 µM in assay [3].
In the case of `O=C(Nc1ccc(C(F)(F)F)cc1)c1cc(F)cnc1NCc1ccnc2[nH]ncc12` [Example 118, 5-Fluoro-2-((1H-pyrazolo[3,4-b]pyridin-4-ylmethyl)amino)-N-(4-(trifluoromethyl)phenyl)-3-pyridinecarboxamide], the IC50 in assay [1] is > 20 µM; in assay [2] it was < 0.5 µM; in assay [3], > 20 µM.
`Cc1cc(NC(=O)c2cc(F)cnc2NCc2ccnc3[nH]ncc23)ccc1C(C)C` [Example 121, 5-Fluoro-N-(3-methyl-4-(1-methylethyl)phenyl)-2-((1H-pyrazolo[3,4-b]pyridin-4-ylmethyl)amino)-3-pyridinecarboxamide]: the IC50 was > 20 µM in assay [1], < 0.5 µM in assay [2] and > 20 µM in assay [3].
With `CC(C)c1ccc(NC(=O)c2cc(F)cnc2NCc2ccnc3[nH]ncc23)cc1` [Example 123, 5-Fluoro-N-(4-(1-methylethyl)phenyl)-2-((1H-pyrazolo[3,4-b]pyridin-4-ylmethyl)amino)-3-pyridinecarboxamide], the IC50 in assay [1] was > 20 µM; in assay [2], < 0.5 µM; in assay [3] it was > 20 µM.

(Values after patent US8247556B2, “Method for preparing 6-substituted-7-aza-indoles” (Amgen Inc., priority 2005, dated 2012).)
